# Experimental data reported in DBAASP.
# Several values for one entry are separate records, joined by “and”; a condition that tells them apart may be missing. Identical values can stand only once.
# Legend:
# Assay in all cases: ≥ marks a high value that may be exact or a test limit, other limits are often not marked, values filed in µg/mL are converted to µM
# [1] = test system: Staphylococcus aureus ATCC 43300
# [2] = test system: Candida parapsilosis CGMCC 2.3989
# [3] = test system: Salmonella enterica subsp. enterica serovar Pullorum ATCC 7913
# [4] = test system: Staphylococcus epidermidis ATCC 12228
# [5] = test system: Escherichia coli 1005
# [6] = test system: Salmonella enterica subsp. enterica serovar Typhimurium ATCC 14028
# [7] = test system: Staphylococcus aureus ATCC 25923
# [8] = test system: Candida krusei CGMCC 2.1857
# [9] = test system: Candida tropicalis CGMCC 2.1975
# [10] = test system: Staphylococcus aureus ATCC 29213
# [11] = test system: Candida albicans
# [12] = test system: Trichoderma viride KCTC 16992
# [13] = test system: Candida albicans KCTC 7270
# [14] = test system: Candida albicans CCARM 14007
# [15] = test system: Colletotrichum gloeosporioides KCTC 6169
# [16] = test system: Fusarium oxysporum KCTC 16909
# [17] = test system: Candida krusei CCARM 14017
# [18] = test system: Candida parapsilosis CCARM 14016
# [19] = test system: Candida albicans CCARM 14001
# [20] = test system: Fusarium solani KCTC 6326
# [21] = test system: Candida albicans CCARM 14020
# [22] = test system: Candida albicans CCARM 14004
# [23] = test system: Fusarium verticillioides KCTC 6149
# [24] = test system: Trichoderma virens KCTC 16924
# [25] = test system: Trichophyton rubrum KCTC 6345
# [26] = test system: Aspergillus flavus KCTC 6905
# [27] = test system: Fusarium graminearum KCTC 16656
# [28] = test system: Legionella pneumophila Lens
# [29] = test system: Escherichia coli ATCC 25922
# [30] = test system: Staphylococcus epidermidis KCTC 1917
# [31] = test system: Enterococcus faecalis ATCC 29212
# [32] = test system: Pseudomonas aeruginosa ATCC 15422
# [33] = test system: Candida albicans ATCC 10231
smiles,measurement,setting,value
NC(=O)[C@H](Cc1ccccc1)NC(=O)[C@H](Cc1ccccc1)NC(=O)[C@H](CCCN=C(N)N)NC(=O)[C@H](CCCN=C(N)N)NC(=O)[C@H](Cc1ccccc1)NC(=O)[C@H](CCCN=C(N)N)NC(=O)[C@H](CCCN=C(N)N)NC(=O)[C@H](Cc1ccccc1)NC(=O)[C@@H](N)Cc1ccccc1 [FFRRFRRFF],MIC,[1],4 µM
same,MIC,[2],≥ 64 µM
same,MIC,[3],≥ 32 µM
same,MIC,[4],4 µM
same,MIC,[5],8 µM
same,MIC,[6],4 µM
same,MIC,[7],4 µM
same,MIC,[8],4 µM
same,MIC,[9],4 µM
same,MIC,[10],8 µM
same,MIC,[11],11.3 µM
NCCCC[C@H](NC(=O)[C@H](CCCCN)NC(=O)[C@H](Cc1cnc[nH]1)NC(=O)[C@H](CCCCN)NC(=O)[C@H](CCCCN)NC(=O)[C@H](Cc1cnc[nH]1)NC(=O)[C@H](CCCCN)NC(=O)[C@H](CCCCN)NC(=O)[C@H](Cc1cnc[nH]1)NC(=O)[C@H](CCCCN)NC(=O)[C@H](CCCCN)NC(=O)[C@H](Cc1cnc[nH]1)NC(=O)[C@H](CCCCN)NC(=O)[C@H](CCCCN)NC(=O)[C@H](Cc1cnc[nH]1)NC(=O)[C@H](CCCCN)NC(=O)[C@H](CCCCN)NC(=O)[C@H](Cc1cnc[nH]1)NC(=O)[C@H](CCCCN)NC(=O)[C@H](CCCCN)NC(=O)[C@H](Cc1cnc[nH]1)NC(=O)[C@H](CCCCN)NC(=O)[C@H](CCCCN)NC(=O)[C@@H](N)Cc1cnc[nH]1)C(N)=O [HKKHKKHKKHKKHKKHKKHKKHKK],MIC,[12],1 µM
same,MIC,[13],8 µM
same,MIC,[14],8 µM
same,MIC,[15],1 µM
same,MIC,[16],2 µM
same,MIC,[17],4 µM
same,MIC,[18],8 µM
same,MIC,[19],8 µM
same,MIC,[20],1 µM
same,MIC,[21],8 µM
same,MIC,[22],8 µM
same,MIC,[23],2 µM
same,MIC,[24],4 µM
same,MIC,[25],2 µM
same,MIC,[26],2 µM
same,MIC,[27],4 µM
NCCCC[C@H](NC(=O)[C@H](CCCCN)NC(=O)[C@H](Cc1cnc[nH]1)NC(=O)[C@H](CCCCN)NC(=O)[C@H](CCCCN)NC(=O)[C@H](Cc1cnc[nH]1)NC(=O)[C@H](CCCCN)NC(=O)[C@H](CCCCN)NC(=O)[C@@H](N)Cc1cnc[nH]1)C(N)=O [HKKHKKHKK],MIC,[12],16 µM
same,MIC,[13],≥ 64 µM
same,MIC,[14],≥ 64 µM
same,MIC,[15],8 µM
same,MIC,[16],≥ 32 µM
same,MIC,[17],16 µM
same,MIC,[18],≥ 32 µM
same,MIC,[19],≥ 64 µM
same,MIC,[20],16 µM
same,MIC,[21],≥ 64 µM
same,MIC,[22],≥ 64 µM
same,MIC,[23],16 µM
same,MIC,[24],16 µM
same,MIC,[25],≥ 32 µM
same,MIC,[26],16 µM
same,MIC,[27],≥ 32 µM
CC[C@H](C)[C@H](NC(=O)[C@H](CC(C)C)NC(=O)CNC(=O)[C@H](CCCCN)NC(=O)[C@@H](NC(=O)[C@@H](NC(=O)[C@H](CCC(=O)O)NC(=O)[C@@H](NC(=O)[C@H](Cc1ccccc1)NC(=O)[C@H](CCCCN)NC(=O)[C@H](C)NC(=O)[C@@H](NC(=O)[C@@H](NC(=O)[C@H](CC(=O)O)NC(=O)[C@H](C)NC(=O)[C@@H](N)CCSC)C(C)C)[C@@H](C)CC)C(C)C)[C@@H](C)CC)C(C)C)C(=O)N[C@@H](CC(=O)O)C(=O)N[C@@H](CCC(N)=O)C(=O)N[C@@H](Cc1ccccc1)C(=O)N[C@H](C(=O)N[C@@H](CCC(N)=O)C(=O)N[C@@H](CCCCN)C(=O)O)[C@@H](C)O [MADVIAKFVEIVKGLIDQFTQK],MIC,[28],5.01 µM
CC[C@H](C)[C@H](NC(=O)[C@H](CCCN=C(N)N)NC(=O)[C@H](CCCN=C(N)N)NC(=O)[C@@H](NC(=O)[C@@H](NC(=O)[C@@H](N)CCCN=C(N)N)[C@@H](C)CC)[C@@H](C)CC)C(=O)N[C@@H](CCCN=C(N)N)C(=O)N[C@@H](CCCN=C(N)N)C(=O)N[C@H](C(=O)N[C@H](C(=O)N[C@@H](CCCN=C(N)N)C(N)=O)[C@@H](C)CC)[C@@H](C)CC [RIIRRIRRIIR],MIC,[1],16 µM
same,MIC,[2],≥ 64 µM
same,MIC,[3],16 µM
same,MIC,[29],16 µM and 32 µM
same,MIC,[4],16 µM
same,MIC,[5],8 µM
same,MIC,[6],16 µM
same,MIC,[7],32 µM
same,MIC,[8],4 µM
same,MIC,[9],1 µM
same,MIC,[10],64 µM
same,MIC,[11],8 µM
CC[C@H](C)[C@H](NC(=O)[C@H](Cc1ccccc1)NC(=O)[C@H](CC(=O)O)NC(=O)[C@@H](NC(=O)[C@H](C)NC(=O)[C@H](CCCCN)NC(=O)[C@H](CCCCN)NC(=O)[C@@H](NC(=O)[C@H](CC(C)C)NC(=O)[C@H](CC(=O)O)NC(=O)[C@@H](NC(=O)[C@@H](NC(=O)[C@H](Cc1ccccc1)NC(=O)[C@H](CCC(N)=O)NC(=O)[C@@H](N)CCSC)[C@@H](C)CC)[C@@H](C)O)[C@@H](C)CC)C(C)C)C(=O)N[C@@H](CCCCN)C(=O)NCC(=O)N[C@@H](CC(C)C)C(=O)N[C@@H](Cc1ccccc1)C(=O)NCC(=O)N[C@@H](CC(N)=O)C(=O)N[C@@H](CCCCN)C(=O)O [MQFITDLIKKAVDFIKGLFGNK],MIC,[28],1.23 µM
CC(C)C[C@H](NC(=O)CNC(=O)[C@H](Cc1ccc(O)cc1)NC(=O)[C@H](Cc1cnc[nH]1)NC(=O)[C@@H]1CCCN1C(=O)[C@H](CC(C)C)NC(=O)[C@H](CCC(=O)O)NC(=O)[C@H](Cc1ccccc1)NC(=O)[C@H](C)NC(=O)[C@H](CO)NC(=O)[C@@H](N)CCCCN)C(=O)O [KSAFELPHYGL],MIC,[30],≥ 250 µM
same,MIC,[31],252 µM and 205 µM and 184 µM
same,MIC,[32],≥ 500 µM
same,MIC,[29],> 500 µM
same,MIC,[33],> 500 µM
